{"source": "patent US8445517B2", "about": "“Stat modulators” (Dana-Farber Cancer Institute, priority 2009, dated 2013)", "key": {"[1]": {"system": "Stat3", "assay": "Stat3 luciferase reporter cell assay (U3A cells, IL-6 stimulated)", "assay_type": "cell-based", "details": "for inhibition of Stat3 activity in validation studies: compounds tested individually, dose responses analyzed, selective versus NF-κB; for enhancement of Stat3 function: Stat3-dependent luciferase screen; for Stat3-dependent luciferase activity, primary screen: library screen in 384-well plates, IL-6 stimulated; for induction of luciferase in the Stat3 reporter system: cytokine treatment, test of reporter specificity", "excerpt": "A cell-based assay system for each Stat1, Stat3 and Stat5 was developed to identify compounds that modulate the respective Stat activity. Although the details for each system are slightly different, as described below, the basic principle are the same. Appropriate cell lines (NIH3T3 for Stat1, U3A for Stat3, and T47D for Stat5) were transfected with a plasmid containing a luciferase reporter gene under the control of a promoter responsive to the indicated Stat, e.g., Stat1, Stat3 or Stat5, as well as a neomycin phosphotransferase cassette (BRIGHT GLO Luciferase Assay Kit available from Promega (Madison, Wis.). The reporter plasmid used in the Stat1 and Stat3 cell lines is described in Lynch et al., Cancer Research, 67:1254-61 (2007), which is herein incorporated by reference in its entirety. The nuclic acid binding sequence of Stat5 use in the reporter plasmid is denoted as region B in Walker et al., Oncogene, 26:224-233 (2007), which is herein incorporated by reference in its entirety.\nCells were selected in geneticin (G418) to isolate clones that had stably integrated the plasmid. Individual clones were isolated and luciferase expression was measured by luminometry in the presence and absence of a stimulator of the specific Stat of interest. Clones having a low basal luciferase expression, prominent induction by a specific stimulus (IFN-γ for Stat1, (IL)-6 for Stat3 and prolactin for Stat5), no induction with an irrelevant stimulus, and stable properties after prolonged cell culture or cryopreservation and thawing were selected. […] Several of these cell lines for each Stat construct were deposited with American Type Culture Collection of Manassas, Va. For example, cell lines having the Stat1 inducible promoter were deposited under ATCC Nos. Cell lines having the Stat3 inducible promoter were deposited under ATCC Nos. Cell lines having the Stat5 inducible promoter were deposited under ATCC numbers Nos.\nTo ensure the specificity of the reporter systems, the Stat3 reporter cell line and the NF-κB reporter system were compared. Each cell type was either untreated, treated with IL-6 (which activates Stat3 in both systems) or treated with TNF-α (which activates NF-κB in both).\nAll three cell-based screening systems were adapted for use in 384-well plates, which were then used to screen a library of 1120 compounds (the Prestwick Myeloma Collection available from Prestwick Chemical, Illkirch, France). […] Briefly, 2,500 cells are plated per well in 30 μl of medium in a 384 well plate and grown in Dulbecco's modified Eagle's medium (DMEM) supplemented with 10% fetal calf serum in an incubator with a 95% air/5% CO2 atmosphere at 37° C. After a 16 hour incubation to allow cells to adhere, 100 nl of the test compound is added per well and incubated for one hour, after which the activating cytokine (IFN-γ, IL-6, and prolactin, respectively) are added to each well in 10 μl of medium. After 6 hours, 40 μl of 0.5× Bright-Glo luciferase substrate (diluted in PBS) is added, and luciferase activity is quantitated on a Luminoskan luminometer (Helsinki, Finland)."}, "[2]": {"system": "NF-κB", "assay": "NF-κB luciferase reporter cell assay (293T cells, TNF-α stimulated)", "assay_type": "cell-based", "details": "for NF-κB activity, primary screen: NF-κB luciferase reporter, control for non-specific effects; for induction of luciferase in the NF-κB reporter cells: cytokine treatment, test of reporter specificity", "description": "A parallel system was also developed in which luciferase was under the control of the transcription factor NF-κB (cell lines deposited on under ATCC Nos.). When these 293T cells are treated with tumor necrosis factor (TNF)-α, they show prominent induction of luciferase. This provided an independent control to exclude non-specific effects.\nTo ensure the specificity of the reporter systems, the Stat3 reporter cell line and the NF-κB reporter system were compared. Each cell type was either untreated, treated with IL-6 (which activates Stat3 in both systems) or treated with TNF-α (which activates NF-κB in both). IL-6 led to approximately a five-fold induction of luciferase in the Stat3 reporter system, but induced no change in the NF-κB reporter cells. Conversely, TNF-α induced a 12-fold induction of luciferase in the NF-κB reporter cells, but led to no change in the Stat3-reporter system. The Stat1 and Stat5 reporter systems show similar characteristics. All three cell-based screens are able to reproducibly identify active and specific compounds.\nThe compounds that show selective activity in the primary screen (e.g., 25% or more difference in luciferase activity in the presence versus the absence of the compound and less than 12% difference in luciferase activity in the Nf-κB assay in the presence versus the absence of the compound) were then validated in a dose-response assay using the appropriate reporter cell lines."}, "[3]": {"system": "Stat1", "assay": "Stat1 luciferase reporter cell screen (NIH3T3 cells, IFN-γ stimulated)", "assay_type": "cell-based", "details": "screen for enhancers of Stat1 function", "description": "A cell-based assay system for each Stat1, Stat3 and Stat5 was developed to identify compounds that modulate the respective Stat activity. Although the details for each system are slightly different, as described below, the basic principle are the same. […]\nCells were selected in geneticin (G418) to isolate clones that had stably integrated the plasmid. Individual clones were isolated and luciferase expression was measured by luminometry in the presence and absence of a stimulator of the specific Stat of interest. […]\nAll three cell-based screening systems were adapted for use in 384-well plates, which were then used to screen a library of 1120 compounds (the Prestwick Myeloma Collection available from Prestwick Chemical, Illkirch, France). […] After 6 hours, 40 μl of 0.5× Bright-Glo luciferase substrate (diluted in PBS) is added, and luciferase activity is quantitated on a Luminoskan luminometer (Helsinki, Finland). […]"}, "[4]": {"system": "endogenous Stat1 genes", "assay": "Expression of endogenous Stat1 target genes (quantitative real-time PCR)", "assay_type": "cell-based", "description": "This is followed by another confirmation assay utilizing quantitative real-time PCR measuring expression of endogenous target genes of each Stat. In this assay the cells are incubated as described above. However, after the incubation the cells are lysed and assessed for increased or decreased expression of target genes specific for the respective Stat molecule, e.g., Stat1, interferon-responsive factor (IRF)-1, GADD45[…], and IFI-16; for Stat3, SOCS3, BCL-6, and KLF-4; and, for Stat5, CIS, PIM-1, and MMP3."}, "[5]": {"system": "MCF-7 breast cancer cells", "assay": "Growth inhibition by IFN-γ in breast cancer cells", "assay_type": "cell-based, human", "details": "Stat1-dependent; MCF-7 cells (FIG. 8)"}, "[6]": {"system": "Stat1", "assay": "Mechanistic studies of Stat1 tyrosine phosphorylation", "assay_type": "cell-based"}}, "note": "“Also recorded” adds a separate entry of the source. Structures can show the parent of a compound that is named as a salt."}
{"compound": "CCCN(CCC)C(=O)CC(c1ccccc1)c1ccccc1O", "note": "(stereo not drawn) [3-(2-hydroxyphenyl)-3-phenyl-N,N-dipropylpropanamide]", "values": [{"measurement": "inhibition of Stat3 activity in validation studies", "setting": "[1]", "result": "significantly and specifically inhibit Stat3 activity"}]}
{"compound": "COC(=O)Nc1nc2ccc(C(=O)c3ccccc3)cc2[nH]1", "note": "[mebendazole]", "values": [{"measurement": "enhancement of Stat3 function", "setting": "[1]", "result": "specifically enhance Stat3 function"}]}
{"compound": "CN(C)CCCN1c2ccccc2Sc2ccccc21", "note": "[promazine hydrochloride]", "values": [{"measurement": "enhancement of Stat3 function", "setting": "[1]", "result": "specifically enhance Stat3 function"}]}
{"compound": "COc1cc([C@@H]2c3cc4c(cc3[C@H](O)[C@H]3COC(=O)[C@H]23)OCO4)cc(OC)c1OC", "note": "[podophyllotoxin]", "values": [{"measurement": "enhancement of Stat3 function", "setting": "[1]", "result": "specifically enhance Stat3 function"}]}
{"compound": "deptropine citrate", "values": [{"measurement": "enhancement of Stat3 function", "setting": "[1]", "result": "specifically enhance Stat3 function"}]}
{"compound": "O=C(N/N=C/c1ccc([N+](=O)[O-])o1)c1ccc(O)cc1", "note": "[nifuroxazide]", "values": [{"measurement": "inhibition of Stat3 activity in validation studies", "setting": "[1]", "result": "significantly and specifically inhibit Stat3 activity"}]}
{"compound": "O=S1(=O)CCC(OC2CCS(=O)(=O)C2)C1", "note": "(stereo not drawn) [3,3′-oxybis[tetrahydrothiophene, 1,1,1′,1′-tetraoxide]", "values": [{"measurement": "Stat3 modulator class as named in figure legend", "setting": "[1]", "result": "Stat3 inhibitor"}]}
{"compound": "Nc1ncnc2c1ncn2[C@@H]1O[C@H](COP(=O)(O)O)[C@@H](O)[C@H]1O.O", "note": "[adenosine 5′-monophosphate monohydrate]", "values": [{"measurement": "enhancement of Stat3 function", "setting": "[1]", "result": "specifically enhance Stat3 function"}]}
{"compound": "N=C(N)N/N=C/c1c(Cl)cccc1Cl", "note": "[guanabenz acetate]", "values": [{"measurement": "inhibition of Stat3 activity in validation studies", "setting": "[1]", "result": "significantly and specifically inhibit Stat3 activity"}]}
{"compound": "CC[N+](C)(CC)CCC[n+]1c(-c2ccccc2)c2cc(N)ccc2c2ccc(N)cc21.[I-].[I-]", "note": "[propidium iodide]", "values": [{"measurement": "Stat3-dependent luciferase activity, primary screen", "setting": "[1]", "result": "inhibited both"}, {"measurement": "NF-κB activity, primary screen", "setting": "[2]", "result": "inhibited both"}]}
{"compound": "O=P1(NCCCl)OCCCN1CCCl", "note": "(stereo not drawn) [ifosfamide]", "values": [{"measurement": "inhibition of Stat3 activity in validation studies", "setting": "[1]", "result": "significantly and specifically inhibit Stat3 activity"}]}
{"compound": "COc1cccc2c1C(=O)c1c(O)c3c(c(O)c1C2=O)C[C@@](O)(C(=O)CO)C[C@@H]3O[C@H]1C[C@H](N)[C@H](O)[C@H](C)O1", "note": "[doxorubicin]", "values": [{"measurement": "Stat3-dependent luciferase activity, primary screen", "setting": "[1]", "result": "inhibited both"}, {"measurement": "NF-κB activity, primary screen", "setting": "[2]", "result": "inhibited both"}]}
{"compound": "solanine alpha", "values": [{"measurement": "inhibition of Stat3 activity in validation studies", "setting": "[1]", "result": "significantly and specifically inhibit Stat3 activity"}]}
{"compound": "C=CCc1ccccc1OCC(O)CNC(C)C", "note": "(stereo not drawn) [alprenolol hydrochloride]", "values": [{"measurement": "inhibition of Stat3 activity in validation studies", "setting": "[1]", "result": "significantly and specifically inhibit Stat3 activity"}]}
{"compound": "IL-6: cytokine which activates Stat3; specific stimulus of the Stat3 reporter", "values": [{"measurement": "induction of luciferase in the Stat3 reporter system", "setting": "[1]", "result": "five-fold"}, {"measurement": "induction of luciferase in the NF-κB reporter cells", "setting": "[2]", "result": "no change"}]}
{"compound": "Oc1ccccc1-c1ccc2cccnc2n1", "note": "[2-(1,8-Naphthyridin-2-yl)phenol]", "values": [{"measurement": "Stat1 modulator class as named in figure legend", "setting": "[3]", "result": "Stat1 activator"}, {"measurement": "expression of endogenous Stat1 genes", "setting": "[4]", "result": "enhanced"}, {"measurement": "growth inhibitory effects of IFN-γ on human breast cancer cell lines", "setting": "[5]", "result": "accentuated; also recorded: enhances"}, {"measurement": "magnitude and duration of Stat1 tyrosine phosphorylation", "setting": "[6]", "result": "increasing"}]}
{"compound": "NC(=O)c1ncn([C@@H]2O[C@H](CO)[C@@H](O)[C@H]2O)n1", "note": "[ribavirin]", "values": [{"measurement": "enhancement of Stat3 function", "setting": "[1]", "result": "specifically enhance Stat3 function"}]}
{"compound": "CCOC(=O)Nc1ccc2c(c1)N(C(=O)CCN1CCOCC1)c1ccccc1S2", "note": "[moricizine hydrochloride]", "values": [{"measurement": "inhibition of Stat3 activity in validation studies", "setting": "[1]", "result": "significantly and specifically inhibit Stat3 activity"}]}
{"compound": "CNCCC=C1c2ccccc2CCc2ccccc21", "note": "[nortriptyline hydrochloride]", "values": [{"measurement": "enhancement of Stat3 function", "setting": "[1]", "result": "specifically enhance Stat3 function"}]}
{"compound": "COC(=O)Nc1nc2ccc(C(=O)c3cccs3)cc2[nH]1", "note": "[nocodazole]", "values": [{"measurement": "enhancement of Stat3 function", "setting": "[1]", "result": "specifically enhance Stat3 function"}]}
{"compound": "O=C1c2c(O)ccc(O)c2C(=O)c2c(NCCNCCO)ccc(NCCNCCO)c21", "note": "[mitoxantrone]", "values": [{"measurement": "Stat3-dependent luciferase activity, primary screen", "setting": "[1]", "result": "inhibited both"}, {"measurement": "NF-κB activity, primary screen", "setting": "[2]", "result": "inhibited both"}]}
{"compound": "TNF-α", "values": [{"measurement": "induction of luciferase in the Stat3 reporter system", "setting": "[1]", "result": "no change"}, {"measurement": "induction of luciferase in the NF-κB reporter cells", "setting": "[2]", "result": 12, "unit": "fold"}]}
{"compound": "COc1cccc2c1C(=O)c1c(O)c3c(c(O)c1C2=O)C[C@@](O)(C(C)=O)C[C@@H]3O[C@H]1C[C@H](N)[C@H](O)[C@H](C)O1", "note": "[daunorubicin]", "values": [{"measurement": "Stat3-dependent luciferase activity, primary screen", "setting": "[1]", "result": "inhibited both"}, {"measurement": "NF-κB activity, primary screen", "setting": "[2]", "result": "inhibited both"}]}
{"compound": "CNCCC(Oc1ccc(C(F)(F)F)cc1)c1ccccc1", "note": "(stereo not drawn) [fluoxetine hydrochloride]", "values": [{"measurement": "inhibition of Stat3 activity in validation studies", "setting": "[1]", "result": "significantly and specifically inhibit Stat3 activity"}]}
{"compound": "C[C@@H]1C[C@@H]([C@H](O)CC2CC(=O)NC(=O)C2)C(=O)[C@@H](C)C1", "note": "[cycloheximide]", "values": [{"measurement": "Stat3-dependent luciferase activity, primary screen", "setting": "[1]", "result": "inhibited both"}, {"measurement": "NF-κB activity, primary screen", "setting": "[2]", "result": "inhibited both"}]}
{"compound": "CN(C)C/C=C(/c1ccc(Br)cc1)c1cccnc1", "note": "[zimelidine dihydrochloride monohydrate]", "values": [{"measurement": "enhancement of Stat3 function", "setting": "[1]", "result": "specifically enhance Stat3 function"}]}
